Data from the NIST ThermoML archive (doi:10.1016/j.jct.2016.03.036).
“And” between values parts separate entries of the source, which are not always exact repeats. Equal values may be shown once.

Assay: xn = mol fraction of the nth substance listed
Conditions: Gas, Spherical resonator

[Ar] [argon] + O=C=O
Conditions | speed of sound
350.01 K, 487.4 kPa, x2 = 0.501 | 308.87 m/s
350.01 K, 500.81 kPa, x2 = 0.7498 | 296.88 m/s
350.01 K, 1987.2 kPa, x2 = 0.7498 | 293.21 m/s
350.01 K, 1987.3 kPa, x2 = 0.7498 | 293.13 m/s
350.01 K, 1987.4 kPa, x2 = 0.7498 | 293.08 m/s
350.01 K, 1989.8 kPa, x2 = 0.501 | 307.6 m/s and 307.57 m/s
350.01 K, 1990 kPa, x2 = 0.501 | 307.46 m/s
350.01 K, 4001.2 kPa, x2 = 0.501 | 306.39 m/s and 306.37 m/s
350.01 K, 4001.5 kPa, x2 = 0.501 | 306.3 m/s
350.01 K, 4010.3 kPa, x2 = 0.7498 | 288.58 m/s and 288.52 m/s
350.01 K, 4010.6 kPa, x2 = 0.7498 | 288.5 m/s
350.01 K, 6002.2 kPa, x2 = 0.501 | 305.92 m/s and 305.92 m/s
350.01 K, 6002.6 kPa, x2 = 0.501 | 305.94 m/s
350.01 K, 6017.8 kPa, x2 = 0.7498 | 284.82 m/s and 284.81 m/s
350.01 K, 6018.2 kPa, x2 = 0.7498 | 284.8 m/s
350.01 K, 7290.6 kPa, x2 = 0.501 | 306.26 m/s and 306.02 m/s
350.01 K, 7291.2 kPa, x2 = 0.501 | 306.19 m/s
350.01 K, 8200.3 kPa, x2 = 0.7498 | 282.09 m/s and 282.08 m/s
350.01 K, 8201 kPa, x2 = 0.7498 | 282.12 m/s
400.13 K, 501.93 kPa, x2 = 0.7498 | 316.14 m/s
400.13 K, 1988.1 kPa, x2 = 0.7498 | 314.38 m/s and 314.32 m/s
400.13 K, 1988.3 kPa, x2 = 0.7498 | 314.31 m/s
400.13 K, 4018.3 kPa, x2 = 0.7498 | 312.3 m/s and 312.25 m/s
400.13 K, 4018.6 kPa, x2 = 0.7498 | 312.17 m/s
400.13 K, 6013.1 kPa, x2 = 0.7498 | 310.98 m/s and 310.94 m/s
400.13 K, 6013.5 kPa, x2 = 0.7498 | 310.89 m/s
400.13 K, 7954.4 kPa, x2 = 0.7498 | 310.44 m/s
400.13 K, 7954.5 kPa, x2 = 0.7498 | 310.43 m/s
400.13 K, 7955.1 kPa, x2 = 0.7498 | 310.44 m/s
400.19 K, 2000.8 kPa, x2 = 0.501 | 328.69 m/s and 328.63 m/s
400.19 K, 2000.9 kPa, x2 = 0.501 | 328.52 m/s
400.2 K, 451.92 kPa, x2 = 0.501 | 328.79 m/s
400.2 K, 4008.7 kPa, x2 = 0.501 | 328.95 m/s and 329.02 m/s
400.2 K, 4009 kPa, x2 = 0.501 | 328.85 m/s
400.2 K, 5980.4 kPa, x2 = 0.501 | 329.82 m/s and 329.89 m/s
400.2 K, 5980.8 kPa, x2 = 0.501 | 329.73 m/s
400.2 K, 7411 kPa, x2 = 0.501 | 330.82 m/s
400.2 K, 7411.2 kPa, x2 = 0.501 | 330.79 m/s
400.2 K, 7411.7 kPa, x2 = 0.501 | 330.75 m/s
500.46 K, 1988.3 kPa, x2 = 0.501 | 365.88 m/s and 365.86 m/s
500.46 K, 1988.4 kPa, x2 = 0.501 | 365.73 m/s
500.46 K, 4007.9 kPa, x2 = 0.501 | 367.67 m/s and 367.61 m/s
500.46 K, 4008.1 kPa, x2 = 0.501 | 367.56 m/s
500.46 K, 6008.3 kPa, x2 = 0.501 | 369.75 m/s and 369.73 m/s
500.46 K, 6008.7 kPa, x2 = 0.501 | 369.69 m/s
500.46 K, 7264.4 kPa, x2 = 0.501 | 371.24 m/s and 371.28 m/s
500.46 K, 7264.8 kPa, x2 = 0.501 | 371.19 m/s
500.48 K, 501.81 kPa, x2 = 0.7498 | 351 m/s
500.48 K, 2003.9 kPa, x2 = 0.7498 | 351.19 m/s and 351.23 m/s
500.48 K, 2004 kPa, x2 = 0.7498 | 351.03 m/s
500.48 K, 4010 kPa, x2 = 0.7498 | 351.64 m/s and 351.63 m/s
500.48 K, 4010.3 kPa, x2 = 0.7498 | 351.5 m/s
500.48 K, 6000.8 kPa, x2 = 0.7498 | 352.54 m/s and 352.49 m/s
500.48 K, 6001.2 kPa, x2 = 0.7498 | 352.39 m/s
500.49 K, 8007.4 kPa, x2 = 0.7498 | 353.87 m/s
500.49 K, 8007.5 kPa, x2 = 0.7498 | 353.82 m/s
500.49 K, 8008 kPa, x2 = 0.7498 | 353.78 m/s
500.5 K, 476.59 kPa, x2 = 0.501 | 364.75 m/s
